In the NIST ThermoML archive (doi:10.1021/je400250u):
Where “and” joins values, the source holds several entries; their conditions need not be identical. Identical values can stand only once. ± gives the expanded uncertainty stated by the source.

Assay: refractive index (Na D-line) (dimensionless)
Details: 308.15 K; 101.33 kPa; Liquid; Standard Abbe refractometry

Compound `CCCCCCCCCCC` [undecane] has a refractive index of 1.4095 ± 0.0013.

Same assay, conditions: 318.15 K; 101.33 kPa; Liquid; Standard Abbe refractometry

Point of comparison: `CCCCCCCCCCC` [undecane], refractive index 1.4058 ± 0.0013. Against it:
- C1CC[C@H]2CCCC[C@H]2C1 [cis-decahydronaphthalene] — higher, 1.4696 ± 0.0013
- CCCCCCCCCC [decane] — lower, 1.4 ± 0.0012
- CCCCCCCCC [nonane] — lower, 1.3937 ± 0.0013
- C1CC[C@H]2CCCC[C@@H]2C1 [trans-decahydronaphthalene] — higher, 1.4581 ± 0.0012

Assay: refractive index (Na D-line) (dimensionless); xn = mol fraction of the nth substance listed
Details: 298.15 K; 100 kPa; Liquid; Standard Abbe refractometry; x2 = 0

Point of comparison: `CCCCCCCCCC` [decane] + C1CC[C@H]2CCCC[C@H]2C1, refractive index 1.4098 ± 0.0012. Against it:
- CCCCCCCCC [nonane] + C1CC[C@H]2CCCC[C@@H]2C1 — lower, 1.4026 ± 0.0013
- CCCCCCCCC [nonane] + C1CC[C@H]2CCCC[C@H]2C1 — lower, 1.4026 ± 0.0013
- CCCCCCCCCCC [undecane] + C1CC[C@H]2CCCC[C@@H]2C1 — higher, 1.4138 ± 0.0013
- CCCCCCCCCCC [undecane] + C1CC[C@H]2CCCC[C@H]2C1 — higher, 1.4138 ± 0.0013

Same assay, conditions: 298.15 K; 101 kPa; Liquid; Standard Abbe refractometry; x2 = 0

Compound `CCCCCCCCCC` [decane] + C1CC[C@H]2CCCC[C@@H]2C1 has a refractive index of 1.4098 ± 0.0007.

Same assay, conditions: 308.15 K; 100 kPa; Liquid; Standard Abbe refractometry; x2 = 0

Point of comparison: `CCCCCCCCCCC` [undecane] + C1CC[C@H]2CCCC[C@H]2C1, refractive index 1.4095 ± 0.0013. Against it:
- CCCCCCCCCC [decane] + C1CC[C@H]2CCCC[C@H]2C1 — lower, 1.4052 ± 0.0012
- CCCCCCCCC [nonane] + C1CC[C@H]2CCCC[C@@H]2C1 — lower, 1.3983 ± 0.0013
- CCCCCCCCC [nonane] + C1CC[C@H]2CCCC[C@H]2C1 — lower, 1.3983 ± 0.0013
- CCCCCCCCCCC [undecane] + C1CC[C@H]2CCCC[C@@H]2C1 — the same, 1.4095 ± 0.0013

Same assay, conditions: 308.15 K; 101 kPa; Liquid; Standard Abbe refractometry; x2 = 0

With `CCCCCCCCCC` [decane] + C1CC[C@H]2CCCC[C@@H]2C1 the refractive index was 1.4052 ± 0.0007.

Same assay, conditions: 318.15 K; 100 kPa; Liquid; Standard Abbe refractometry; x2 = 0

Point of comparison: `CCCCCCCCCC` [decane] + C1CC[C@H]2CCCC[C@H]2C1, refractive index 1.4 ± 0.0012. Against it:
- CCCCCCCCC [nonane] + C1CC[C@H]2CCCC[C@@H]2C1 — lower, 1.3937 ± 0.0013
- CCCCCCCCC [nonane] + C1CC[C@H]2CCCC[C@H]2C1 — lower, 1.3937 ± 0.0013
- CCCCCCCCCCC [undecane] + C1CC[C@H]2CCCC[C@@H]2C1 — higher, 1.4058 ± 0.0013
- CCCCCCCCCCC [undecane] + C1CC[C@H]2CCCC[C@H]2C1 — higher, 1.4058 ± 0.0013

Same assay, conditions: 318.15 K; 101 kPa; Liquid; Standard Abbe refractometry; x2 = 0

With `CCCCCCCCCC` [decane] + C1CC[C@H]2CCCC[C@@H]2C1 the refractive index was 1.4 ± 0.0007.

Assay: not given
Details: 293.15 K; 100 kPa; Liquid; Capillary tube (Ostwald / Ubbelohde) method

Point of comparison: `C1CC[C@H]2CCCC[C@H]2C1` [cis-decahydronaphthalene], viscosity 3.355 ± 0.033 mPa·s. Against it:
- CCCCCCCCCC [decane] — lower, 0.916 ± 0.012 mPa·s
- CCCCCCCCC [nonane] — lower, 0.724 ± 0.011 mPa·s
- C1CC[C@H]2CCCC[C@@H]2C1 [trans-decahydronaphthalene] — lower, 2.112 ± 0.015 mPa·s
- CCCCCCCCCCC [undecane] — lower, 1.17 ± 0.014 mPa·s

Same assay, conditions: 293.15 K; 100 kPa; Liquid; Vibrating tube method

Point of comparison: `CCCCCCCCCC` [decane], mass density 731.14 ± 0.23 kg/m3. Against it:
- C1CC[C@H]2CCCC[C@H]2C1 [cis-decahydronaphthalene] — higher, 896.85 ± 0.48 kg/m3
- CCCCCCCCC [nonane] — lower, 717.94 ± 0.24 kg/m3
- C1CC[C@H]2CCCC[C@@H]2C1 [trans-decahydronaphthalene] — higher, 869.78 ± 0.13 kg/m3
- CCCCCCCCCCC [undecane] — higher, 740.28 ± 0.32 kg/m3

Same assay, conditions: 298.15 K; 100 kPa; Liquid; Capillary tube (Ostwald / Ubbelohde) method

Point of comparison: `C1CC[C@H]2CCCC[C@@H]2C1` [trans-decahydronaphthalene], viscosity 1.925 ± 0.015 mPa·s. Against it:
- C1CC[C@H]2CCCC[C@H]2C1 [cis-decahydronaphthalene] — higher, 3.011 ± 0.03 mPa·s
- CCCCCCCCCC [decane] — lower, 0.852 ± 0.012 mPa·s
- CCCCCCCCC [nonane] — lower, 0.681 ± 0.011 mPa·s
- CCCCCCCCCCC [undecane] — lower, 1.086 ± 0.014 mPa·s

Same assay, conditions: 298.15 K; 100 kPa; Liquid; Vibrating tube method

Point of comparison: `C1CC[C@H]2CCCC[C@H]2C1` [cis-decahydronaphthalene], mass density 893.06 ± 0.48 kg/m3. Against it:
- CCCCCCCCCC [decane] — lower, 727.43 ± 0.23 kg/m3
- CCCCCCCCC [nonane] — lower, 714.11 ± 0.24 kg/m3
- C1CC[C@H]2CCCC[C@@H]2C1 [trans-decahydronaphthalene] — lower, 866.07 ± 0.13 kg/m3
- CCCCCCCCCCC [undecane] — lower, 736.63 ± 0.32 kg/m3

Same assay, conditions: 303.15 K; 100 kPa; Liquid; Capillary tube (Ostwald / Ubbelohde) method

Point of comparison: `CCCCCCCCC` [nonane], viscosity 0.64 ± 0.011 mPa·s. Against it:
- C1CC[C@H]2CCCC[C@H]2C1 [cis-decahydronaphthalene] — higher, 2.718 ± 0.028 mPa·s
- CCCCCCCCCC [decane] — higher, 0.799 ± 0.012 mPa·s
- C1CC[C@H]2CCCC[C@@H]2C1 [trans-decahydronaphthalene] — higher, 1.769 ± 0.014 mPa·s
- CCCCCCCCCCC [undecane] — higher, 1.004 ± 0.013 mPa·s

Same assay, conditions: 303.15 K; 100 kPa; Liquid; Vibrating tube method

Point of comparison: `C1CC[C@H]2CCCC[C@@H]2C1` [trans-decahydronaphthalene], mass density 862.34 ± 0.14 kg/m3. Against it:
- C1CC[C@H]2CCCC[C@H]2C1 [cis-decahydronaphthalene] — higher, 889.26 ± 0.48 kg/m3
- CCCCCCCCCC [decane] — lower, 723.64 ± 0.23 kg/m3
- CCCCCCCCC [nonane] — lower, 710.2 ± 0.24 kg/m3
- CCCCCCCCCCC [undecane] — lower, 732.93 ± 0.32 kg/m3

Same assay, conditions: 308.15 K; 100 kPa; Liquid; Capillary tube (Ostwald / Ubbelohde) method

Point of comparison: `CCCCCCCCC` [nonane], viscosity 0.604 ± 0.011 mPa·s. Against it:
- C1CC[C@H]2CCCC[C@H]2C1 [cis-decahydronaphthalene] — higher, 2.47 ± 0.026 mPa·s
- CCCCCCCCCC [decane] — higher, 0.751 ± 0.011 mPa·s
- C1CC[C@H]2CCCC[C@@H]2C1 [trans-decahydronaphthalene] — higher, 1.628 ± 0.013 mPa·s
- CCCCCCCCCCC [undecane] — higher, 0.931 ± 0.013 mPa·s

Same assay, conditions: 308.15 K; 100 kPa; Liquid; Vibrating tube method

Point of comparison: `C1CC[C@H]2CCCC[C@@H]2C1` [trans-decahydronaphthalene], mass density 858.61 ± 0.14 kg/m3. Against it:
- C1CC[C@H]2CCCC[C@H]2C1 [cis-decahydronaphthalene] — higher, 885.46 ± 0.48 kg/m3
- CCCCCCCCCC [decane] — lower, 719.84 ± 0.23 kg/m3
- CCCCCCCCC [nonane] — lower, 706.29 ± 0.25 kg/m3
- CCCCCCCCCCC [undecane] — lower, 729.22 ± 0.32 kg/m3

Same assay, conditions: 313.15 K; 100 kPa; Liquid; Capillary tube (Ostwald / Ubbelohde) method

Point of comparison: `C1CC[C@H]2CCCC[C@@H]2C1` [trans-decahydronaphthalene], viscosity 1.505 ± 0.013 mPa·s. Against it:
- C1CC[C@H]2CCCC[C@H]2C1 [cis-decahydronaphthalene] — higher, 2.252 ± 0.024 mPa·s
- CCCCCCCCCC [decane] — lower, 0.709 ± 0.011 mPa·s
- CCCCCCCCC [nonane] — lower, 0.571 ± 0.011 mPa·s
- CCCCCCCCCCC [undecane] — lower, 0.862 ± 0.013 mPa·s

Same assay, conditions: 313.15 K; 100 kPa; Liquid; Vibrating tube method

Point of comparison: `CCCCCCCCC` [nonane], mass density 702.35 ± 0.25 kg/m3. Against it:
- C1CC[C@H]2CCCC[C@H]2C1 [cis-decahydronaphthalene] — higher, 881.65 ± 0.48 kg/m3
- CCCCCCCCCC [decane] — higher, 716.03 ± 0.23 kg/m3
- C1CC[C@H]2CCCC[C@@H]2C1 [trans-decahydronaphthalene] — higher, 854.88 ± 0.14 kg/m3
- CCCCCCCCCCC [undecane] — higher, 725.51 ± 0.32 kg/m3

Same assay, conditions: 318.15 K; 100 kPa; Liquid; Capillary tube (Ostwald / Ubbelohde) method

For `C1CC[C@H]2CCCC[C@H]2C1` [cis-decahydronaphthalene], the viscosity was 2.079 ± 0.022 mPa·s and 2.063 ± 0.022 mPa·s.

Point of comparison: `C1CC[C@H]2CCCC[C@@H]2C1` [trans-decahydronaphthalene], viscosity 1.394 ± 0.013 mPa·s. Against it:
- CCCCCCCCCC [decane] — lower, 0.667 ± 0.011 mPa·s
- CCCCCCCCC [nonane] — lower, 0.547 ± 0.011 mPa·s
- CCCCCCCCCCC [undecane] — lower, 0.801 ± 0.012 mPa·s

Same assay, conditions: 318.15 K; 100 kPa; Liquid; Vibrating tube method

Point of comparison: `CCCCCCCCCC` [decane], mass density 712.2 ± 0.23 kg/m3. Against it:
- C1CC[C@H]2CCCC[C@H]2C1 [cis-decahydronaphthalene] — higher, 877.85 ± 0.47 kg/m3
- CCCCCCCCC [nonane] — lower, 698.4 ± 0.25 kg/m3
- C1CC[C@H]2CCCC[C@@H]2C1 [trans-decahydronaphthalene] — higher, 851.14 ± 0.14 kg/m3
- CCCCCCCCCCC [undecane] — higher, 721.78 ± 0.32 kg/m3

Same assay, conditions: 323.15 K; 100 kPa; Liquid; Capillary tube (Ostwald / Ubbelohde) method

With `C1CC[C@H]2CCCC[C@H]2C1` [cis-decahydronaphthalene] the viscosity was 1.912 ± 0.021 mPa·s and 1.898 ± 0.021 mPa·s.

Point of comparison: `CCCCCCCCC` [nonane], viscosity 0.521 ± 0.011 mPa·s. Against it:
- CCCCCCCCCC [decane] — higher, 0.632 ± 0.011 mPa·s
- C1CC[C@H]2CCCC[C@@H]2C1 [trans-decahydronaphthalene] — higher, 1.295 ± 0.012 mPa·s
- CCCCCCCCCCC [undecane] — higher, 0.749 ± 0.012 mPa·s

Same assay, conditions: 323.15 K; 100 kPa; Liquid; Vibrating tube method

Point of comparison: `C1CC[C@H]2CCCC[C@@H]2C1` [trans-decahydronaphthalene], mass density 847.4 ± 0.14 kg/m3. Against it:
- C1CC[C@H]2CCCC[C@H]2C1 [cis-decahydronaphthalene] — higher, 874.05 ± 0.47 kg/m3
- CCCCCCCCCC [decane] — lower, 708.36 ± 0.23 kg/m3
- CCCCCCCCC [nonane] — lower, 694.43 ± 0.25 kg/m3
- CCCCCCCCCCC [undecane] — lower, 718.04 ± 0.31 kg/m3
